Activity calls are given as the source filed them. No rule for the calls is given here.
System: rodent carcinogenicity bioassays, tumor incidence
Test: CCRIS carcinogenicity studies
In short: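 Archive of carcinogenicity, mutagenicity, tumor promotion and tumor inhibition results drawn from journals, NCI reports and other sources, expert-reviewed; covers 1985-2011 and is no longer updated.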

## CN(C)c1ccc(C(=N)c2ccc(N(C)C)cc2)cc1
Species: HUMAN, Route: ORAL, INHALATION, DERMAL, Tumor Site: Type of Lesion: URINARY BLADDER
  carcinogen call: active; positive
Species: MOUSE, Route: ORAL, Tumor Site: Type of Lesion: LIVER, LYMPHATIC SYSTEM: LYMPHOMA
  carcinogen call: active; positive
Species: RAT, Route: ORAL, Tumor Site: Type of Lesion: LIVER
  carcinogen call: active; positive
Species: RAT, Route: SUBCUTANEOUS, Tumor Site: Type of Lesion: INJECTION SITE
  carcinogen call: active; positive

## N#Cc1c(Cl)c(Cl)c(Cl)c(C#N)c1Cl
Species: MOUSE, Strain/Sex: B6C3F1/FEMALE, Route: ORAL, Dose: 0, 3000, 6000 PPM IN DIET, TWA, Dose: 0, 3000, 6000 PPM IN DIET, TWA
  carcinogen call: inactive; negative
Species: MOUSE, Strain/Sex: B6C3F1/MALE, Route: ORAL, Dose: 0, 2688, 5375 PPM IN DIET, TWA, Dose: 0, 2688, 5375 PPM IN DIET, TWA
  carcinogen call: inactive; negative
Species: Mouse, Strain/Sex: CD-1/Female (60 per group), Route: Oral, Dose: 0, 750, 1,500, 3,000 ppm in diet for 2 yr, Dose: 0, 750, 1,500, 3,000 ppm in diet for 2 yr, Tumor Site: Type of Lesion: Forestomach: Squamous cell papillomas or carcinomas (0, 2, 6, 5), No dose response
  carcinogen call: active; positive (ca dpr describes as possible adverse effect; study details not given i
Species: Mouse, Strain/Sex: CD-1/Male (60 per group), Route: Oral, Dose: 0, 750, 1,500, 3,000 ppm in diet for 2 yr, Dose: 0, 750, 1,500, 3,000 ppm in diet for 2 yr, Tumor Site: Type of Lesion: Kidney: renal tubular adenoma or carcinoma (0, 6, 4, 4). Forestomach: Squamous cell papillomas or carcinomas (0, 2, 5, 2
  carcinogen call: active; positive without dose response (ca dpr describes as possible adverse effect); st
Species: RAT, Strain/Sex: OSBORNE-MENDEL/FEMALE, Route: ORAL, Dose: 0, 5063, 10126 PPM IN DIET, TWA, Dose: 0, 5063, 10126 PPM IN DIET, TWA, Tumor Site: Type of Lesion: KIDNEY: ADENOMA OR CARCINOMA (NOS) OR TUBULAR CELL ADENOMA OR TUBULAR CELL ADENOCARCINOMA
  carcinogen call: active; positive
Species: RAT, Strain/Sex: OSBORNE-MENDEL/MALE, Route: ORAL, Dose: 0, 5063, 10126 PPM IN DIET, TWA, Dose: 0, 5063, 10126 PPM IN DIET, TWA, Tumor Site: Type of Lesion: KIDNEY: CARCINOMA (NOS) OR TUBULAR CELL ADENOMA OR TUBULAR CELL ADENOCARCINOMA OR ADENOCARCINOMA OR PAPILLARY ADENOMA
  carcinogen call: active; positive
Species: Rat, Strain/Sex: Fischer 344/Female (55 per group), Route: Oral, Dose: 0, 1.8, 3.8, 15.2, 183 mg/kg/day in diet for 125 wks, Dose: 0, 1.8, 3.8, 15.2, 183 mg/kg/day in diet for 125 wks, Tumor Site: Type of Lesion: Kidney: Renal tubular adenomas and carcinomas (0, 0, 0, 0, 32 in 53-55 animals). Forestomach: Papillomas and carcinomas
  carcinogen call: active; positive (study details not given in source)
Species: Rat, Strain/Sex: Fischer 344/Male (55 per group), Route: Oral, Dose: 0, 1.8, 3.8, 15.2, 183 mg/kg/day in diet for 99 wks (high dose) or 111 wk (all others), Dose: 0, 1.8, 3.8, 15.2, 183 mg/kg/day in diet for 99 wks (high dose) or 111 wk (all others), Tumor Site: Type of Lesion: Kidney: Renal tubular adenomas and carcinomas (1, 1, 1, 4, 23 in 53-55 animals) Forestomach: Papillomas and carcinomas (
  carcinogen call: active; positive (study details not given in source)
Species: Rat, Strain/Sex: Sprague-Dawley/Female (50 per group), Route: Oral, Dose: 0, 15, 60, 240, 1,200 mg/kg/day in diet for 2 yr, Dose: 0, 15, 60, 240, 1,200 mg/kg/day in diet for 2 yr, Tumor Site: Type of Lesion: Forestomach: Papillomas or carcinomas (0, 0, 0, 2, 1), Not significant
  carcinogen call: inactive; negative (ca dpr describes as possible adverse effect; study details not given i
Species: Rat, Strain/Sex: Sprague-Dawley/Male (50 per group), Route: Oral, Dose: 0, 15, 60, 240, 1,200 mg/kg/day in diet for 2 yr, Dose: 0, 15, 60, 240, 1,200 mg/kg/day in diet for 2 yr, Tumor Site: Type of Lesion: Forestomach: Papillomas or carcinomas (0, 0, 0, 0, 3), Borderline significance
  carcinogen call: active; positive at highest dose (ca dpr describes as possible adverse effect; study det

## C=C(C)C(=O)OC
Species: HAMSTER, Strain/Sex: GOLDEN/FEMALE, Route: INHALATION, Dose: 0, 25, 100, 400 PPM IN AIR 6 HR/D 5 D/WK FOR 18 MO (STUDY DURATION: 78 WK), Dose: 0, 25, 100, 400 PPM IN AIR 6 HR/D 5 D/WK FOR 18 MO (STUDY DURATION: 78 WK)
  carcinogen call: inactive; negative
Species: HAMSTER, Strain/Sex: GOLDEN/MALE, Route: INHALATION, Dose: 0, 25, 100, 400 PPM IN AIR 6 HR/D 5 D/WK FOR 18 MO (STUDY DURATION: 78 WK), Dose: 0, 25, 100, 400 PPM IN AIR 6 HR/D 5 D/WK FOR 18 MO (STUDY DURATION: 78 WK)
  carcinogen call: inactive; negative
Species: MOUSE, Strain/Sex: B6C3F1/FEMALE, Route: INHALATION, Dose: 0, 500, 1000 PPM 6 HR/D, 5 D/WK FOR 102 WK, Dose: 0, 500, 1000 PPM 6 HR/D, 5 D/WK FOR 102 WK
  carcinogen call: inactive; negative
Species: MOUSE, Strain/Sex: B6C3F1/MALE, Route: INHALATION, Dose: 0, 500, 1000 PPM 6 HR/D, 5 D/WK FOR 102 WK, Dose: 0, 500, 1000 PPM 6 HR/D, 5 D/WK FOR 102 WK
  carcinogen call: inactive; negative
Species: RAT, Strain/Sex: F344/FEMALE, Route: INHALATION, Dose: 0, 25, 100, 400 PPM IN AIR 6 HR/D 5 D/WK FOR 24 MO (STUDY DURATION: 104-106 WK), Dose: 0, 25, 100, 400 PPM IN AIR 6 HR/D 5 D/WK FOR 24 MO (STUDY DURATION: 104-106 WK)
  carcinogen call: inactive; negative
Species: RAT, Strain/Sex: F344/FEMALE, Route: INHALATION, Dose: 0, 250, 500 PPM 6 HR/D, 5 D/WK FOR 102 WK, Dose: 0, 250, 500 PPM 6 HR/D, 5 D/WK FOR 102 WK
  carcinogen call: inactive; negative
Species: RAT, Strain/Sex: F344/MALE, Route: INHALATION, Dose: 0, 25, 100, 400 PPM IN AIR 6 HR/D 5 D/WK FOR 24 MO (STUDY DURATION: 104-106 WK), Dose: 0, 25, 100, 400 PPM IN AIR 6 HR/D 5 D/WK FOR 24 MO (STUDY DURATION: 104-106 WK)
  carcinogen call: inactive; negative
Species: RAT, Strain/Sex: F344/MALE, Route: INHALATION, Dose: 0, 500, 1,000 PPM 6 HR/D, 5 D/WK FOR 102 WK, Dose: 0, 500, 1,000 PPM 6 HR/D, 5 D/WK FOR 102 WK
  carcinogen call: inactive; negative

## OC[C@@H](O)[C@@H](O[C@@H]1O[C@H](CO)[C@H](O)[C@H](O)[C@H]1O)[C@H](O)[C@@H](O)CO
Species: MOUSE, Strain/Sex: CPB:SWISS/FEMALE, Route: ORAL, Dose: 0, 2, 5, 10% IN DIET FOR 104 WK (STUDY DURATION: 734 D), Dose: 0, 2, 5, 10% IN DIET FOR 104 WK (STUDY DURATION: 734 D)
  carcinogen call: inactive; negative
Species: MOUSE, Strain/Sex: CPB:SWISS/MALE, Route: ORAL, Dose: 0, 2, 5, 10% IN DIET FOR 104 WK (STUDY DURATION: 730 D), Dose: 0, 2, 5, 10% IN DIET FOR 104 WK (STUDY DURATION: 730 D)
  carcinogen call: inactive; negative
Species: RAT, Strain/Sex: SPF/FEMALE, Route: ORAL, Dose: 0, 2, 5, 10% IN DIET FOR DURATION OF STUDY ADMINISTERED TO OFFSPRING OF RATS FED THE SAME DIETS (STUDY DURATION: 130 WK), Dose: 0, 2, 5, 10% IN DIET FOR DURATION OF STUDY ADMINISTERED TO OFFSPRING OF RATS FED THE SAME DIETS (STUDY DURATION: 130 WK)
  carcinogen call: inactive; negative
Species: RAT, Strain/Sex: SPF/MALE, Route: ORAL, Dose: 0, 2, 5, 10% IN DIET FOR DURATION OF STUDY ADMINISTERED TO OFFSPRING OF RATS FED THE SAME DIETS (STUDY DURATION: 130 WK), Dose: 0, 2, 5, 10% IN DIET FOR DURATION OF STUDY ADMINISTERED TO OFFSPRING OF RATS FED THE SAME DIETS (STUDY DURATION: 130 WK), Tumor Site: Type of Lesion: TESTES: LEYDIG CELL TUMOR
  carcinogen call: active; positive

## N[C@@H](Cc1ccc(N(CCCl)CCCl)cc1)C(=O)O
Species: HUMAN, Route: ORAL, Tumor Site: Type of Lesion: HEMATOPOIETIC SYSTEM (LEUKEMIA), LYMPHATIC SYSTEM: LYMPHOMA
  carcinogen call: active; positive
Species: MOUSE, Strain/Sex: STRAIN-A/MALE,FEMALE, Route: INTRAPERITONEAL, Dose: 0.27, 1.07, 4.27, 17.1 MG/KG IN 12 DOSES OVER 4 WK, Dose: 0.27, 1.07, 4.27, 17.1 MG/KG IN 12 DOSES OVER 4 WK, Tumor Site: Type of Lesion: LUNG: ADENOMA
  carcinogen call: active; positive
Species: MOUSE, Strain/Sex: SWISS/FEMALE, Route: INTRAPERITONEAL, Dose: 0.75, 1.5 MG/KG 3/WK FOR 6 MO, Tumor Site: Type of Lesion: LUNG: ADENOMA
  carcinogen call: active; positive
Species: MOUSE, Strain/Sex: SWISS/MALE, Route: INTRAPERITONEAL, Dose: 0.75, 1.5 MG/KG 3/WK FOR 6 MO, Tumor Site: Type of Lesion: LUNG: ADENOMA, LYMPHATIC SYSTEM: LYMPHOSARCOMA
  carcinogen call: active; positive
Species: RAT, Strain/Sex: STRAIN-CD/MALE,FEMALE, Route: INTRAPERITONEAL, Dose: 0.9, 1.8 MG/KG 3/WK FOR 6 MO, Tumor Site: Type of Lesion: PERITONEAL CAVITY: SARCOMA
  carcinogen call: active; positive

From PubChem BioAssay AID1259411 (Chemical Carcinogenesis Research Information System (CCRIS), 2018)
